Results published in ChEMBL document CHEMBL4364281, “Design of wogonin-inspired selective cyclin-dependent kinase 9 (CDK9) inhibitors with potent in vitro and in vivo antitumor activity” (Eur J Med Chem, 2019).
Converted amounts (≈) assume the structure as drawn. The source made the active and inactive calls. The calls are words filed in the database; no cut-off is given here.

Experiments:
CDK2/Cyclin A2 = CDK2/Cyclin A2 (Homo sapiens, UniProt P24941)
Description: Inhibition of human CDK2/cyclin-A2 using H1 histone as substrate after 2 hrs by [gamma-33P]-ATP assay

MV4-11 [1] = assay: Induction of apoptosis in human MV4-11 cells assessed as early apoptotic cells at 0.25 uM after 24 hrs by Annexin-V/propidium iodide staining based flow cytometric method (reference value: 0.36%); type: functional
THP-1 = assay: Antiproliferative activity against human THP1 cells assessed as reduction in cell viability after 72 hrs by MTT assay; type: functional, cell-based; details: THP-1, 72 h
MV4-11 [2] = assay: Induction of apoptosis in human MV4-11 cells assessed as viable cells at 0.25 uM after 24 hrs by Annexin-V/propidium iodide staining based flow cytometric method (reference value: 96.94%); type: functional; details: MV4-11, 24 h, read-out: Activity
MV4-11 [3] = assay: Induction of apoptosis in human MV4-11 cells assessed as decrease in c-MYC expression after 4 hrs by Western blot analysis; type: functional, cell-based
[4] = Toxicity in BALB/c mouse assessed as mortality at 15 to 45 mg/kg, iv administered every other day for 21 days; type: organism-based; details: in vivo, 504 h
MV4-11 [5] = assay: Cell cycle arrest in human MV4-11 cells assessed as accumulation at G1 phase at 0.05 uM after 24 hrs by propidium iodide staining based flow cytometry (reference value: 41.20%); type: functional
[6] = Toxicity in BALB/c mouse assessed as effect on body weight at 15 to 45 mg/kg, iv administered every other day for 21 days; type: organism-based; details: in vivo, 504 h
MV4-11 [7] = assay: Induction of apoptosis in human MV4-11 cells assessed as necrotic cells at 1.25 uM after 24 hrs by Annexin-V/propidium iodide staining based flow cytometric method (reference value: 2.64%); type: functional
MV4-11 [8] = assay: Induction of apoptosis in human MV4-11 cells assessed as viable cells at 1.25 uM after 24 hrs by Annexin-V/propidium iodide staining based flow cytometric method (reference value: 96.94%); type: functional; details: MV4-11, 24 h, read-out: Activity
MV4-11 [9] = assay: Antitumor activity against human MV4-11 cells xenografted in BALB/c mouse assessed as tumour growth inhibition at 15 mg/kg, iv administered every other day for 21 days relative to control; type: functional; details: MV4-11, iv, 504 h, read-out: TGI
MV4-11 [10] = assay: Induction of apoptosis in human MV4-11 cells assessed as increase in cleaved PARP level after 24 hrs by Western blot analysis; type: functional, cell-based
MV4-11 [11] = assay: Induction of apoptosis in human MV4-11 cells assessed as necrotic cells at 0.05 uM after 24 hrs by Annexin-V/propidium iodide staining based flow cytometric method (reference value: 2.64%); type: functional
HT-29 = assay: Antiproliferative activity against human HT-29 cells assessed as reduction in cell viability after 72 hrs by MTT assay; type: functional, cell-based; details: HT-29, 72 h
MV4-11 [12] = assay: Induction of apoptosis in human MV4-11 cells assessed as viable cells at 0.05 uM after 24 hrs by Annexin-V/propidium iodide staining based flow cytometric method (reference value: 96.94%); type: functional; details: MV4-11, 24 h, read-out: Activity
HeLa = assay: Antiproliferative activity against human HeLa cells assessed as reduction in cell viability after 72 hrs by MTT assay; type: functional, cell-based
MV4-11 [13] = assay: Induction of apoptosis in human MV4-11 cells assessed as late apoptotic cells at 0.25 uM after 24 hrs by Annexin-V/propidium iodide staining based flow cytometric method (reference value: 0.07%); type: functional
BT-549 = assay: Antiproliferative activity against human BT549 cells assessed as reduction in cell viability after 72 hrs by MTT assay; type: functional, cell-based; details: BT-549, 72 h
MV4-11 [14] = assay: Induction of apoptosis in human MV4-11 cells assessed as early apoptotic cells at 0.05 uM after 24 hrs by Annexin-V/propidium iodide staining based flow cytometric method (reference value: 0.36%); type: functional
SW480 = assay: Antiproliferative activity against human SW480 cells assessed as reduction in cell viability after 72 hrs by MTT assay; type: functional, cell-based; details: SW480, 72 h
MV4-11 [15] = assay: Induction of apoptosis in human MV4-11 cells assessed as necrotic cells at 0.25 uM after 24 hrs by Annexin-V/propidium iodide staining based flow cytometric method (reference value: 2.64%); type: functional
MV4-11 [16] = assay: Induction of apoptosis in human MV4-11 cells assessed as decrease in MCL-1 expression after 4 hrs by Western blot analysis; type: functional, cell-based
MV4-11 [17] = assay: Induction of apoptosis in human MV4-11 cells assessed as late apoptotic cells at 0.05 uM after 24 hrs by Annexin-V/propidium iodide staining based flow cytometric method (reference value: 0.07%); type: functional
MV4-11 [18] = assay: Cell cycle arrest in human MV4-11 cells assessed as accumulation at S phase at 0.05 uM after 24 hrs propidium iodide staining based flow cytometry (reference value: 26.06%); type: functional
MV4-11 [19] = assay: Antitumor activity against human MV4-11 cells xenografted in BALB/c mouse assessed as tumour growth inhibition at 45 mg/kg, iv administered every other day for 21 days relative to control; type: functional; details: MV4-11, iv, 504 h, read-out: TGI
MV4-11 [20] = assay: Induction of apoptosis in human MV4-11 cells assessed as effect on BCL-2 expression after 4 hrs by Western blot analysis; type: functional, cell-based
MV4-11 [21] = assay: cells; details: Homo sapiens, MV4-11, 72 h
Description: Antiproliferative activity against human MV4-11 cells assessed as reduction in cell viability after 72 hrs by MTT assay

HEK293 = assay: Cytotoxicity against human HEK293 cells assessed as reduction in cell viability after 72 hrs by MTT assay; type: cell-based; details: HEK293, 72 h
MV4-11 [22] = assay: Cell cycle arrest in human MV4-11 cells assessed as accumulation at G1 phase at 1.25 uM after 24 hrs by propidium iodide staining based flow cytometry (reference value: 41.20%); type: functional
HepG2 = assay: cells; details: Homo sapiens, HepG2, 72 h
Description: Antiproliferative activity against human HepG2 cells assessed as reduction in cell viability after 72 hrs by MTT assay

L02 = assay: Cytotoxicity against human LO2 cells assessed as reduction in cell viability after 72 hrs by MTT assay; type: cell-based; details: L02, 72 h
RPMI-8226 = assay: Antiproliferative activity against human RPMI8226 cells assessed as reduction in cell viability after 72 hrs by MTT assay; type: functional, cell-based; details: RPMI-8226, 72 h
MV4-11 [23] = assay: Cell cycle arrest in human MV4-11 cells assessed as accumulation at G2 phase at 0.25 uM after 24 hrs propidium iodide staining based flow cytometry (reference value: 22.73%); type: functional
MV4-11 [24] = assay: Induction of apoptosis in human MV4-11 cells assessed as early apoptotic cells at 1.25 uM after 24 hrs by Annexin-V/propidium iodide staining based flow cytometric method (reference value: 0.36%); type: functional
MV4-11 [25] = assay: Cell cycle arrest in human MV4-11 cells assessed as accumulation at S phase at 1.25 uM after 24 hrs propidium iodide staining based flow cytometry (reference value: 26.06%); type: functional
MV4-11 [26] = assay: Cell cycle arrest in human MV4-11 cells assessed as accumulation at S phase at 0.25 uM after 24 hrs propidium iodide staining based flow cytometry (reference value: 26.06%); type: functional
A549 = assay: cells; details: Homo sapiens, A549, 72 h
Description: Antiproliferative activity against human A549 cells assessed as reduction in cell viability after 72 hrs by MTT assay

MV4-11 [27] = assay: Induction of apoptosis in human MV4-11 cells by Annexin-V/propidium iodide staining based flow cytometric method; type: functional, cell-based

Description for physchem: Intrinsic solubility of compound by potentiometric titration assay

`COc1cc(O)c2c(=O)cc(-c3ccc(N4CCN(C)CC4)cc3)oc2c1Oc1c(C)n[nH]c1C` showed an IC50 (CDK2/Cyclin A2) of 0.913 µM, an Activity (MV4-11 [1]) of 21.25% and an IC50 (THP-1) of 0.79 µM. The viability at 0.25 µM (MV4-11 [2]) was 63.7%, the Activity (MV4-11 [3]) was “Dose-dependent effect” and the Activity [4] was “Non-Toxic”. For the same compound, the Activity (MV4-11 [5]) was 48.27%, the Activity [6] was “Non-Toxic” and the Activity (MV4-11 [7]) was 6.46%. For the same compound, the viability at 1.25 µM (MV4-11 [8]) was 58.1%, the inhibition in vivo at 15 mg/kg (MV4-11 [9]) was 22.9% and the Activity (MV4-11 [10]) was “Dose-dependent effect”. The Activity (MV4-11 [11]) was 7.27%, the IC50 (HT-29) was 1.8 µM and the solubility (physchem) was 28 µg/mL (≈ 58.8 µM). The viability at 0.05 µM (MV4-11 [12]) was 74.8%, the IC50 (HeLa) was 2.32 µM and the Activity (MV4-11 [13]) was 7.29%. For the same compound, the IC50 (BT-549) was 1.85 µM, the Activity (MV4-11 [14]) was 12.42% and the IC50 (SW480) was 1.86 µM. For the same compound, the Activity (MV4-11 [15]) was 7.72%, the Activity (MV4-11 [16]) was “Dose-dependent effect” and the Activity (MV4-11 [17]) was 5.53%. For the same compound, the Activity (MV4-11 [18]) was 33.91%, the inhibition in vivo at 45 mg/kg (MV4-11 [19]) was 53% and the Activity (MV4-11 [20]) was “inactive”. For the same compound, the IC50 (MV4-11 [21]) was 0.02 µM, the IC50 (HEK293) was 22.1 µM and the Activity (MV4-11 [22]) was 62.77%. For the same compound, the IC50 (HepG2) was 2.67 µM, the IC50 (L02) was 15.1 µM and the IC50 (RPMI-8226) was 0.82 µM. It also gave an Activity (MV4-11 [23]) of 13.32%, an Activity (MV4-11 [24]) of 26.43% and an Activity (MV4-11 [25]) of 28.21%. The Activity (MV4-11 [26]) was 30.91%, the IC50 (A549) was 1.81 µM and the Activity (MV4-11 [27]) was “Dose-dependent effect”.
